Data as given in US20220125877A1, “METHOD FOR TREATING COLORECTAL CANCER” (SUN YAT-SEN UNIVERSITY, priority 2019, published 2022).

Legend:
[1] = tested on: metastatic colorectal cancer (mCRC) patients with T2DM; test: Retrospective study of OS and PFS of first-line chemotherapy in mCRC patients with T2DM (Kaplan-Meier, stratified Cox proportional hazard model), SYSUCC 2004-2016; assay type: in vivo, human
From the text: General clinical characteristics of the patients, such as, sex, age and body mass index (BMI) and the clinical characteristics affecting mCRC prognosis in the existing research reports (such as, primary tumor site, pathological grading, metastatic site, first-line chemotherapy regimen and KRAS genotype) were collected to exclude confounding factors, thus making the influences of metformin on the overall survival (OS) of the mCRC patients with T2DM and the progression free survival (PFS) of the first-line chemotherapy clear.
GraphPad Prism 7 was used to draw a Kaplan-Meier curve, and Log-rank (Mantel-Cox) statistical analysis was performed; stratified HR was additionally used to make a statistics on the influences on OS and PFS between different hypoglycemic agents use and the without anti-diabetic treatments.
A stratified Cox proportional hazard model was used for stratification on the above collected clinical characteristics to explore the individual factors influencing the efficacy of metformin.
After through the proportional hazard assumption, it is further assumed that sex, age, BMI, primary tumor site, pathological grading, metastatic site, and KRAS genotype may serve as confounding factors to make an impact on the anti-tumor effect of metformin. Therefore, hierarchical regression analysis was performed on the above clinical characteristics, thus determining the individual difference interacting with metformin.

[2] = tested on: SW48 CDX; test: Cell-derived xenograft (CDX), tumor growth; assay type: in vivo, BALB/c nude mice; conditions: 200 mg/kg in water, 30 d, vs control group, FIGS. 12G-L
Description: The tumor inhibition effect of MATE1 with metformin was verified by a cell-derived xenograft transplantation model (CDX) experiment.
In the CDX, CRISPR/Cas9 was first utilized to build a KRAS^G13DSW48 cell line; MATE1 was knocked down by shRNA lentivirus transduction in SW48 to build a sh-MATE1-SW48 cell line; lentivirus was infected in KRAS^G13DSW48 cells to over-express MATE1. 1×10^6 cells were suspended in a basement membrane matrix (100 μl basement membrane matrix and 100 μl PBS) and subcutaneously injected into BALB/c nude mice. CDX mice were randomly distributed into a metformin treatment group and a control group. 200 mg/kg (equivalent to human 1000 mg) metformin was dissolved into water, and respectively taken by the 4 groups of animals; then the tumor size was measured; 30 d later, the tumor tissues were killed and weighed.

[3] = tested on: ERK and AKT signaling pathways of KRAS mutation CRC cells in PDX tumor tissues; test: Western blot of PDX tumor tissues; assay type: in vivo, BALB/c nude mice; conditions: FIG. 9F
From the text: (2) Tumor tissues from PDX animals were taken and homogenated to extract protein for WB.

[4] = tested on: ERK, RB, MPK, AKT, mTOR and 4E-BP1 phosphorylation in LoVo; test: Western blot of MEK/ERK/cyclin D1/RB and PI3K/AKT/mTOR/4E-BP1 signaling; assay type: cell-based, human; conditions: 24 h, FIGS. 9A-C
Description: (§1) Western blot was used to detect the change of metformin on the related molecules of sroliferative signaling pathways MEK/ERK/cyclin D1/RB and PI3K/AKT/mTOR/4E-BP1, which clarifies the mechanism of metformin in inhibiting the proliferation of KRAS mutation CRC cells.
(§2) 1) Cells were inoculated on a culture dish and cultured to 60% of fusion degree, and treated with the addition of an agent for 24 h.
(§3) 2) Protein was collected, and washed with PBS for 3 times, then added with 100 μl 1 RSDS buffer solution (100 mmol/1 Tris-Cl pH6.8, 2% SDS, 10% glycerinum), and at this time, the cell lysis solution was sticky.
(§4) 3) The cell lysis solution was collected into a 0.5 ml centrifugal tube with a scraper, and cooked for 30 min at 100° C.
(§5) 4) The total protein extractive in the cells was subjected to protein quantification according to a BCA kit process (BIO-RAD company).
(§6) 5) The sample was treated according to a ratio of 9 μl denatured protein sample: 1 μl denatured buffer solution (β-mercaptoethanol (BME), 0.4% Bromphenol Blue), and boiled for 30 min at 100° C. for further use.
(§7) 6) A prepared SDS-PAGE gel (10% separation gel and 5% stacking gel) was taken; samples were added with 40 ug/well, and subjected gel electrophoresis for 30 min at 80V, and gel electrophoresis for 90 min at 120V. […]

[5] = tested on: ERK, RB, MPK, AKT, mTOR and 4E-BP1 phosphorylation in SW48; test: as above; assay type: cell-based, human; conditions: 24 h, FIGS. 9A-C
Description: as §1, §2, §3, §4, §5, §6, §7

[6] = metformin use vs non-metformin use, Age at diagnosis <60 years
[7] = metformin use vs non-metformin use, Age at diagnosis ≥60 years
[8] = metformin use vs non-metformin use, BMI Normal (18.5~23.0)
[9] = metformin use vs non-metformin use, BMI Pre- & obese (>23.0)
[10] = metformin use vs non-metformin use, KRAS genotype Wildtype
[11] = metformin use vs non-metformin use, Metastatic site Liver
[12] = metformin use vs non-metformin use, Metastatic site Multiple sites
[13] = metformin use vs non-metformin use, Moderately differentiated
[14] = metformin use vs non-metformin use, Poorly & un-differentiated
[15] = metformin use vs non-metformin use, Primary site Left colon
[16] = metformin use vs non-metformin use, Primary site Rectum
[17] = metformin use vs non-metformin use, Primary site Right colon
[18] = metformin use vs non-metformin use, Sex: Female
[19] = metformin use vs non-metformin use, Sex: Male
[20] = vs nonusers of hypoglycemic agents, stratified by age at diagnosis, adjusted for sex, BMI, primary site, metastatic site, pathological grading, KRAS genotype

Question: Which results are given for `CN(C)C(=N)N=C(N)N` [metformin]?
Answer: overall survival, Kaplan-Meier curve ([1]; KRAS mutation mCRC patients, P<0.001, FIGS. 3A-B): significantly extends; progression free survival of first-line chemotherapy, Kaplan-Meier curve ([1]; KRAS mutation mCRC patients, P<0.01, FIGS. 3A-B): significantly extends; efficacy on OS and PFS, Kaplan-Meier curve ([1]; KRAS wildtype mCRC patients, FIGS. 3C-D): has no efficacy; extension of median survival ([1]; Kaplan-Meier, mCRC patients with T2DM, P=0.022, FIG. 2): 11.3 months; OS HR (95% CI) [1, 6]: 0.869; PFS HR (95% CI) [1, 6]: 1.074; OS HR (95% CI) [1, 7]: 0.596; PFS HR (95% CI) [1, 7]: 0.562; OS HR (95% CI) [1, 8]: 0.582; PFS HR (95% CI) [1, 8]: 0.884; OS HR (95% CI) [1, 9]: 0.702; PFS HR (95% CI) [1, 9]: 0.555; OS HR (95% CI) [1, 10]: 1.487; PFS HR (95% CI) [1, 10]: 1.194; OS HR (95% CI) [1, 11]: 1.151; PFS HR (95% CI) [1, 11]: 0.949; OS HR (95% CI) [1, 12]: 1.008; PFS HR (95% CI) [1, 12]: 0.818; OS HR (95% CI) [1, 13]: 0.676; PFS HR (95% CI) [1, 13]: 0.644; OS HR (95% CI) [1, 14]: 0.629; PFS HR (95% CI) [1, 14]: 0.811; OS HR (95% CI) [1, 15]: 0.982; PFS HR (95% CI) [1, 15]: 0.823; OS HR (95% CI) [1, 16]: 0.475; PFS HR (95% CI) [1, 16]: 0.544; OS HR (95% CI) [1, 17]: 0.729; PFS HR (95% CI) [1, 17]: 0.622; OS HR (95% CI) [1, 18]: 0.944; PFS HR (95% CI) [1, 18]: 0.697; OS HR (95% CI) [1, 19]: 0.673; PFS HR (95% CI) [1, 19]: 0.732; OS HR (95% CI) [1, 20]: 0.356; PFS HR (95% CI) [1, 20]: 0.630; anti-tumor effect (tumor growth) [2]: no obvious anti-tumor effect; ERK and AKT signaling pathways in PDX tumor tissues [3]: inhibits; phosphorylation levels in ERK, RB, MPK, AKT, mTOR and 4E-BP1 [4]: inhibited phosphorylation levels; phosphorylation levels in ERK, RB, MPK, AKT, mTOR and 4E-BP1 [5]: no obvious change
